According to patent US20120316203A1, “Compositions and Methods for Inhibition of Cancers” (THE OHIO STATE UNIVERSITY RESEARCH FOUNDATION, priority 2009, published 2012):

Key:
[1] = tested on: pSTAT3 (Tyr705 and Ser727) and phospho-JAK1 (Tyr1022/1023) in A2780 cells; assay: Immunoblot and immunoprecipitation of JAK/STAT3 signaling; format: cell-based, human; settings: 10 or 20 μmol/L, 24 hours
Protocol: Equal volumes of DMSO (0.1% v/v) were present in each treatment. Following treatment, the cell lysates were prepared in non-denaturing lysis buffer containing 10 mmol/L Tris-HCl (pH 7.4), 150 mmol/L NaCl, 1% Triton X-100, 1 mmol/L EDTA, 1 mmol/L EGTA, 0.3 mmol/L phenylmethyl-sulfonyl fluoride, 0.2 mmol/L sodium orthovanadate, 0.5% NP40, 1 μg/mL aprotinin, and 1 μg/mL leupetin. The lysates were centrifuged at 10,000×g for 20 minutes at 4° C. and the supernatant was separated. The protein concentration in the lysates was determined using a Pierce detergent-compatible protein assay kit. For Western blotting, 25 to 50 μg of protein lysate per sample were denatured in 2×SDS-PAGE sample buffer and subjected to SDS-PAGE on a 10% tris-glycine gel. The separated proteins were transferred to a polyvinylidene fluoride membrane and were blocked with 5% nonfat milk powder (w/v) in TBST (10 mmol/L Tris, 10 mmol/L NaCl, 0.1% Tween 20) for 1 hour at room temperature or overnight at 4° C. The membranes were then incubated with the primary antibodies. The bound antibodies were detected with horseradish peroxidase-labeled sheep anti-mouse IgG or horseradish peroxidase-labeled donkey anti-rabbit IgG using an enhanced chemiluminescence detection system (ECL Advanced kit). Protein expressions were determined using the Image Gauge v. 3.45 software.

[2] = tested on: hOSE cells, HSMC, and HAEC; assay: Cytotoxicity of DAPs to noncancerous cells (MTT); format: cell-based, human
Protocol: Cell viability was determined by a colorimetric assay using MTT. In the mitochondria of living cells, yellow MTT undergoes a reductive conversion to formazan, giving a purple color. Cells, grown to […] confluence in 75-mm flasks, were trypsinized, counted, seeded in 96-well plates with an average population of 7000 cells/well, incubated overnight, and then treated with the DAPs (H-4073, HO-3867, H4318, or HO-4200; […]) for 24 h. All experiments were done using eight replicates and repeated at least three times. Cell viability was expressed as the percentage of MIT viability of untreated cells.

[3] = tested on: STAT3 and apoptotic markers in HSMC; assay: Western blot of STAT3 signaling and apoptotic markers in HSMC; format: cell-based, human; settings: 10 μM, 24 h
Protocol: Cells were grown in RPMI 1640 medium and treated with DMSO (control) or HO-3867 ([…]). Equal volumes of DMSO (0.1% v/v) were present in both groups. After treatment, cell lysates were prepared in nondenaturing lysis buffer (10 mM Tris-HCl (pH 7.4), 150 mM NaCl, 1% Triton X-100, 1 mM EDTA, 1 mM EGTA, 0.3 mM phenylmethylsulfonyl fluoride, 0.2-mM sodium orthovanadate, 0.5% NP-40, 1 lag/ml aprotinin, and 1 lag/ml leupeptin). Cell lysates were centrifuged at 10,000 RPM for 20 min at 4° C., and the supernatant was separated. The protein concentration in the lysates was determined using a Pierce detergent-compatible protein assay kit. For Western blotting, 25 to 50 lag of protein lysate per sample was denatured in 2× sample buffer and subjected to SDS-PAGE on a 10 or 12% Tris-glycine gel. The separated proteins were transferred to a PVDF membrane and then the membrane was blocked with 5% nonfat milk powder (w/v) in 10 mM Tris, 100 mM NaCl, 0.1% Tween 20 for 1 h at room temperature or overnight at 4° C. The membranes were incubated with the primary antibodies described above. The bound antibodies were detected with horseradish peroxidase (HRP)-labeled sheep anti-mouse IgG or HRP-labeled donkey anti-rabbit IgG (Amersham) using an enhanced chemiluminescence detection system (ECL Advanced Kit). Protein expression was determined using Image Gauge version 3.45.

[4] = tested on: hOSE cells; assay: Cell viability by MTT assay, noncancerous hOSE control cells; format: cell-based, human
Protocol: Cell viability was determined by a colorimetric assay using MTT. In the mitochondria of living cells, yellow MTT undergoes a reductive conversion to formazan, producing a purple color. Cells, grown to […] confluence in 75-mm flasks, were trypsinized, counted, seeded in 96-well plates with an average population of 7,000 cells per well, incubated overnight, and then treated with curcumin, H-4073, or HO-3867 for 24 hours. All experiments were done using eight replicates and, repeated at least thrice.

[5] = Body weight and diet consumption of tumor-bearing animals; format: in vivo; settings: 25, 50, and 100 ppm in feed, 5 weeks
Protocol: Cultured A2780 cancer cells (2×10^6 cells in […] of PBS) were s.c. injected into the back of 6-week-old BALB/c nude mice from the National Cancer Institute. Five to 7 days later, when the tumors reached 3 to 5 mm in diameter, the mice were divided (n=9/group) in a manner to equalize the mean tumor diameter among the groups. The control group was given a normal diet (no treatment), whereas the experimental groups were treated using the DAP compounds mixed with the animal feed (Harlan Teklad) at three different levels (25, 50, and 100 ppm). The doses were chosen based on an initial dose-response study optimized to produce an observable effect on tumor growth. The size of the tumor was measured twice per week using a digital Vernier caliper. The tumor volume was determined from the orthogonal dimensions (d1, d2, d3) using the formula (d1×d2×d3)×π/6. Thirty five days after the beginning of HO-3867 treatment, the mice were sacrificed and the tumors were resected. The tumor tissues were then subjected to immunoblot analysis.
The mice were treated with HO-3867 and the tumor size as measured twice weekly for 5 weeks. […] We also measured the body weight and diet consumption of tumor-bearing animals.

[6] = tested on: A2780 and SKOV3 cells; assay: Cell-migration (wound-healing) assay; format: cell-based, human; settings: 10 μM
Protocol: Cell-migration assay was performed by wound-healing method. Cells were plated at equal density and grown to 90% confluence. Wounds were created using a sterile pipette tip. Cells were then rinsed with medium and replaced with the fresh medium and incubated with HO-3867 (10 μM). Areas of wound were marked and photographed at various time-points with a phase-contrast microscope. Cell-invasive assay was measured by an in vitro Boyden chamber assay. Briefly, 1×10^5 cells in 0.5 ml of serum-free RPMI 1640 medium were added to the wells of 8-μm-diameter pore membrane Boyden chambers, either coated with (BD Biosciences, Franklin Lake, N.J.) or without (Corning, Corning, N.Y.) Matrigel. Cells were allowed to invade for 24 hours. Cells that had not penetrated the filters were removed by scrubbing with cotton swabs. Chambers were fixed in 100% methanol for 2 min, stained in 0.5% crystal violet for 2 min, rinsed in PBS and examined using a bright-field microscope. Values for invasion were obtained by counting five fields per membrane and represented as the average of three independent experiments performed over multiple days.

## CC1(C)C=C(CN2C/C(=C\c3ccc(F)cc3)C(=O)/C(=C/c3ccc(F)cc3)C2)C(C)(C)N1O [HO-3867, 1-[(1-oxyl-2,2,5,5-tetramethyl-2,5-dihydro-1H-pyrrol-3-yl)methyl]-(3E,5E)-3,5-bis(4-fluorobenzylidene)piperidin-4-one]
[1]
  pSTAT3 (Tyr705 and Ser727) levels: significantly decreased
[1]; versus unexposed controls
  phosphor-JAK1 (Tyr1022/1023): substantial decrease
[2]; 10 NM, 24-h incubation
  cell viability of noncancerous (healthy) human cell lines: significantly less toxic
[2]; same dose for both compounds
  viability of hOSE cells: very little effect
[3]
  activation of STAT3 or apoptotic markers in HSMC: did not induce any significant change
[4]; 20 μmol/L
  cytotoxicity to hOSE cells: significant cytotoxicity
[4]; equivalent doses
  toxicity to noncancerous hOSE cells compared with H-4073: significantly less toxic
[4]; up to 10 μmol/L
  cytotoxicity to hOSE cells: no significant cytotoxicity
[5]
  gross signs of toxicity (body weight, diet consumption): did not show any gross signs of toxicity
[6]; 24 hours, versus untreated cells
  cell migration: significant inhibition
[6]; 24-h incubation, versus VEGF group
  VEGF-induced migration: significantly inhibited
